One test deals with PAR1. Briefly: Release of PAR1 N-terminal cleavage peptide from gel-filtered platelets (dot blot, IIaR-A antibody). Type of test: cell-based, human. From the text: To further understand how collagen is able to activate significant amounts of endogenous MMP-1 collagenase activity on the surface of platelets, experiments were devised to determine if PAR-1 is cleaved in either an autocrine or paracrine manner following exposure to collagen. Using a monoclonal antibody raised against the amino-terminal thrombin-cleavage peptide region of PAR1, residues 32-46 (Loew et al., 2000), the relative abilities of thrombin, MMP-1 and collagen to cause cleavage of platelet PAR1 was assessed. Gel filtered platelets were treated for 10 min with thrombin (3 nM), MMP-1 (3 nM), collagen (5 μg/ml), in the presence or absence (PBS buffer) of 0.00013 U hirudin or 5 μM FN-439 at 37° C. Supernatants were concentrated 20-fold and applied to nitrocellulose membranes, then probed with the IIaR-A monoclonal antibody. The PAR1 N-terminal thrombin deavage peptide (A26-R41) and PAR1 flexible linker peptide (N-acetyl-T67-L84 -C) (Kuliopulos et al., 1999) served as positive and negative controls (100 ng), respectively.
These platelets were then stimulated with collagen (5 μg/ml) for 10 min. at 37° C. Supernatants were concentrated 20-fold and applied to nitrocellulose membranes, then probed with the IIaR-A monoclonal antibody. […] FN-439, or an MMP1-blocking antibody (20 μg/ml) but not by thrombin inhibitor, hirudin (see FIG. 1E, FIG. 1G).

Another test relates to platelets. Briefly: Clot retraction assay in human platelet-rich plasma, collagen initiated. Type of test: cell-based. Conditions: 2.5-5 μg/ml collagen (titration 1-20 μg/ml); FN-439 5 μM, RWJ-56110 1 μM, MMP9/13 Inh 10 nM; 90 or 240 min. Here is the method:
Platelet rich plasma (PRP) was isolated from human whole blood anti-coagulated with 4% sodium citrate. Clot retraction assays were done in 1 ml volumes containing 800 μl PBS and 200 μl PRP plus 10 μl red blood cells to enhance contrast. Samples were pretreated with FN-439 (5 μM), MMP9/13 Inh (10 nM) or RWJ-56110 (1 μM) for 15 min and clot formation was initiated with 1-20 μg/ml type I fibrillar collagen. Samples were incubated at 37° C. for 90 or 240 min and then photographed with a digital camera. Each photograph in FIG. 6I is representative of three independent experiments.

For test [1], the target named is T1, MMP-1 (Cavia porcellus, UniProt H0V812).
T1 construct: endogenous in cells; host or cells: platelets of Hartley guinea pigs
Briefly: Collagenase activity released from collagen-treated guinea pig platelets. Type of test: biochemical. Conditions: 20 μg/ml collagen; 3 μM FN-439 or 20 μg/ml Ab. Here is the method:
Animal experiments were performed in accordance with the National Institutes of Health guidelines and approved by the Tufts Medical Center Institutional Animal Care and Use Committee. 2-4 week old Hartley guinea pigs (170-260 g) were anesthetized by an i.p. injection of xylazine (10 mg/kg) plus ketamine (50 mg/kg) and then catheterized via the left jugular vein and injected (200 μL) with either vehicle (20% DMSO/80% water), P1pal-7 or FN-439. For determination of collagen-dependent systemic platelet activation, 10 min after administration of inhibitors, 200 μg collagen in 200 μL of PBS was delivered via the jugular vein. Ten min after collagen injection, blood was collected into sodium citrate (1% v/v final) from the contralateral jugular vein and platelet counts were measured with a Hemavet850. The enzymatic activity of active MMP-1 in supernatants and platelet lysates was determined using DQ collagen I as fluorogenic substrate in the presence or absence of 3 μM FN-439, or 20 μg/ml of control IgG or a MMP-1 blocking Ab (preincubated for 2 h at 37° C.), as indicated.
Dashed grey line: secondary antibody alone; Solid lines: FACS profiles of platelets treated with the indicated concentrations of collagen for 15 min at 37° C. and then stained with primary MMP-1 (AB806) plus secondary antibodies.

Test [2] addresses T2, MMP-1 (Homo sapiens, UniProt P03956).
T2 sequence (P03956 100-469): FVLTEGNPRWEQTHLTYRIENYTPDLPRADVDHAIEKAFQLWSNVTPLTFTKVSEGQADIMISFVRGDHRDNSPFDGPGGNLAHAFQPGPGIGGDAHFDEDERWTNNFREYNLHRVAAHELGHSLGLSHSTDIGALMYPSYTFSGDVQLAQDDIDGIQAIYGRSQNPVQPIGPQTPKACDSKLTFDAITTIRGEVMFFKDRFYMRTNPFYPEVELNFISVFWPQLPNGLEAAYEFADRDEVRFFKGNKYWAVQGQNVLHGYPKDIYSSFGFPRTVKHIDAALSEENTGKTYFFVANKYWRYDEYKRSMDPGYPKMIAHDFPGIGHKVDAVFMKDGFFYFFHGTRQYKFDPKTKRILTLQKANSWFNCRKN
Particulars: cited from earlier work.

A further test concerns the target MMP-3 (Homo sapiens, UniProt P08254). Conditions: cited from earlier work.
Another test concerns the target MMP-8 (Homo sapiens, UniProt P22894). Particulars: cited from earlier work.
A further test has as its target MMP-9 (Homo sapiens, UniProt P14780). Particulars: cited from earlier work.

pIC50: −log10 of the molar value. Non-standard residues stand in square brackets, D forms with d. Residues, ends and D or L forms follow the SMILES beside them. *: point of attachment. 4Abz = Nc1ccc(C(=O)O)cc1; NHOH = ON*

Chain of MMP-3 (P08254 100-477, species assumed): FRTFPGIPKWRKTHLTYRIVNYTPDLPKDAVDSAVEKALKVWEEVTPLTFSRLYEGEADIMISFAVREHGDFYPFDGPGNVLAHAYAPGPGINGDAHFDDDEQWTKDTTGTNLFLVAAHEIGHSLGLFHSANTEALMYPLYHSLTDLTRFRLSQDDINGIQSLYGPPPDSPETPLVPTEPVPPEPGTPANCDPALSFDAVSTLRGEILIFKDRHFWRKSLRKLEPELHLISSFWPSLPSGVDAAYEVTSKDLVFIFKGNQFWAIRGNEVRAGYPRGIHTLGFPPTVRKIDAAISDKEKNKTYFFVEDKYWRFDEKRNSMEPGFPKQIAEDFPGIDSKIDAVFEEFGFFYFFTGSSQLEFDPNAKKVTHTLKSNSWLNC
T1 sequence (H0V812 1-472): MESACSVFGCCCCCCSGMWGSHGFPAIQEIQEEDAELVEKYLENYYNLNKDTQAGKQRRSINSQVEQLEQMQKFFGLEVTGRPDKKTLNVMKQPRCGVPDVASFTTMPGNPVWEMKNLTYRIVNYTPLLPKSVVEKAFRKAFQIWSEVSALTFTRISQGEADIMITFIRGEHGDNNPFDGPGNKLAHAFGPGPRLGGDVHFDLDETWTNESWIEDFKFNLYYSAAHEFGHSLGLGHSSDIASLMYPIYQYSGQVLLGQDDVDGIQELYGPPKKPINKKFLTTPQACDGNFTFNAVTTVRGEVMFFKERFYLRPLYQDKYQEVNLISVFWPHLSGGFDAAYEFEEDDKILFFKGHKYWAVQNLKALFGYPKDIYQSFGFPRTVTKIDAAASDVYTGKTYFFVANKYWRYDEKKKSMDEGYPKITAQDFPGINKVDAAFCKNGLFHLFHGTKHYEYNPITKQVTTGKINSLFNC
Chain of MMP-8 (P22894 101-467, species assumed): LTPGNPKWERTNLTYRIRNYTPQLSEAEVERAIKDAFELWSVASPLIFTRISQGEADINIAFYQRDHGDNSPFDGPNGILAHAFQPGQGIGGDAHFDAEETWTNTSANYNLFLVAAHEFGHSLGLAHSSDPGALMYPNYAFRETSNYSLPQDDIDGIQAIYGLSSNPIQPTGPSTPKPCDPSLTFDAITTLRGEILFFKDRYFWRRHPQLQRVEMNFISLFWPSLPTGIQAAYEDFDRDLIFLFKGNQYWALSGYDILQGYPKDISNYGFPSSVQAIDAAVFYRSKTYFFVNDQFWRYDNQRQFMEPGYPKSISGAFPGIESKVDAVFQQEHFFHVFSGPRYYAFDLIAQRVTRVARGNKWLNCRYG
Chain of MMP-9 (P14780 94-707, species assumed): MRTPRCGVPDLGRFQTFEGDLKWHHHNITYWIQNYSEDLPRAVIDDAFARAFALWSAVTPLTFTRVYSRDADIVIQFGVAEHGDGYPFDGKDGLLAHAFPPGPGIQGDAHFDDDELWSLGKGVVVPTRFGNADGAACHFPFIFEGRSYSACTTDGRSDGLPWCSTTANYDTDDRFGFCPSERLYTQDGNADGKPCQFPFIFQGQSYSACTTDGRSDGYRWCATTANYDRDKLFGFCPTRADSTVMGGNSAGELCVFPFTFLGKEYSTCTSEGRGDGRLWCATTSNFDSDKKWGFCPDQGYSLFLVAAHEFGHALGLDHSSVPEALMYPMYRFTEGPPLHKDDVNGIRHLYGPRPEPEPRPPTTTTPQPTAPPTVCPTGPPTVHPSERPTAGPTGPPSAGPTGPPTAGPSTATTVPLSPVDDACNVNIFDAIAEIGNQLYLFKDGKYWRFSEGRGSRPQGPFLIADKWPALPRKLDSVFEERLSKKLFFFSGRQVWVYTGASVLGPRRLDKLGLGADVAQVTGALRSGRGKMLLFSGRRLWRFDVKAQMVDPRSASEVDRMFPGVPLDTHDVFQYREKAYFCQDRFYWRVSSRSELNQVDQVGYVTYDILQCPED

For the molecule `CC(C)C[C@@H](NC(=O)[C@@H]1CCCN1C(=O)CNC(=O)c1ccc(N)cc1)C(=O)N[C@H](C)C(=O)NO` [FN-439] (H-[4Abz]GP[dL][dA]-{NHOH}), the “block of MMP-1-induced release of N-terminal cleavage peptide of PAR1” value with PAR1 (3 nM MMP-1, 5 μM FN-439) is given as “blocked”. Moreover, the “block of collagen-induced release of PAR1 N-terminal peptide” value with PAR1 (5 μg/ml collagen, 10 min, 37° C., Ab 20 μg/ml, ARC 0.5 μM, ASA 1 mM) was “specifically blocked”. Moreover, the “inhibition of clot formation and retraction” value with platelets is given as “completely inhibited”. Besides, the “block of collagenase activity released by collagen from guinea pig platelets” value at MMP-1 [1] is “completely blocked”. The pIC50 is 6.00 at MMP-1 [2], 3.82 at MMP-3, 6.00 on MMP-8 and 4.52 at MMP-9.

Broadly, the pIC50 is the IC50 on a negative log10 scale, so that one unit is a factor of ten.

The values above are taken from patent US9376499B2, “PAR-1 activation by metalloproteinase-1 (MMP-1)” (Tufts Medical Center, Inc., priority 2009, dated 2016).
